According to patent US20250228239A1, “MOLECULES HAVING PESTICIDAL UTILITY, AND INTERMEDIATES, COMPOSITIONS, AND PROCESSES, RELATED THERETO” (priority 2024, published 2025):
Where two headings read alike, the source gives them in different places.

Key:
Type in all cases: in vivo
[1] = tested on: Yellow Fever Mosquito (Aedes aegypti, AEDSAE); details: for YFM rating: Table ABC / ABC-DP rating
Outline: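 Compounds from DMSO master plates (4000 ppm stock) diluted in 90:10 water/acetone, then dispensed into six replicate plates and infested with ~1-day-old Aedes aegypti larvae in liver-powder water. Held covered at room temperature for 3 days; each well scored for larval mortality and graded on a rating scale.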

[2] = tested on: Beet Armyworm (Spodoptera exigua, LAPHEG); experiment: Bioassays on Beet Armyworm (BAW), 128-well diet tray assay; details: Spodoptera exigua
Outline: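 Diet-overlay assay: 50 μg/cm^2 compound applied in 90:10 acetone-water to artificial diet, allowed to dry, then infested with 1–5 L2 larvae/well; 8 wells/compound; covered, vented; 25° C., 14:10 L:D, 5–7 d; % mortality per well, averaged.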

[3] = tested on: Cabbage Looper (Trichoplusia ni, TRIPNI); experiment: Bioassays on Cabbage Looper (CL), 128-well diet tray assay; details: Trichoplusia ni
Outline: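 Activity is mean percent mortality over eight wells of second-instar larvae exposed to diet treated at 50 μg/cm^2 for 5–7 days at 25° C.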

[4] = Beet Armyworm, Table ABC / ABC-DP rating, read-out: BAW rating
[5] = Cabbage Looper, Table ABC / ABC-DP rating, read-out: CL rating
[6] = Table ABC: Biological Results, species YFM
[7] = Table ABC: Biological Results, species BAW, read-out: BAW
[8] = Table ABC: Biological Results, species CL, read-out: CL
[9] = Yellow Fever Mosquito, rating class
[10] = Beet Armyworm, rating class, read-out: BAW
[11] = Cabbage Looper, rating class, read-out: CL

Question: Which results are given for `O=C(NNc1ncccc1Cl)c1cc(NC(=O)[C@H]2[C@H](c3cc(Cl)cc(Cl)c3)C2(Cl)Cl)ccc1Cl` (relative stereo) [F2505, trans-2,2-Dichloro-N-(4-chloro-3-(2-(3-chloropyridin-2-yl)hydrazine-1-carbonyl)phenyl)-3-(3,5-dichlorophenyl)cyclopropane-1-carboxamide]?
Answer: YFM rating ([1]; Yellow Fever Mosquito): A (80–100); pest or weed control at 50 µg/cm2 [2, 4]: 50 to 100%; pest or weed control at 50 µg/cm2 [3, 5]: 50 to 100%

Question: Which YFM [1, 6] does the source give for `O=C(Nc1ccccc1)c1cc(NC(=O)[C@H]2[C@H](c3ccc(F)c(Cl)c3)C2(Cl)Cl)cc(C(F)(F)F)c1Cl` (relative stereo) [F1212, trans-2-Chloro-5-(2,2-dichloro-3-(3-chloro-4-fluorophenyl)cyclopropane-1-carboxamido)-N-phenyl-3-(trifluoromethyl)benzamide] here?
Answer: A (80–100)

Question: And the pest or weed control at 50 µg/cm2 [2, 7]?
Answer: 50 to 100%

Question: And the pest or weed control at 50 µg/cm2 [3, 8]?
Answer: 50 to 100%

Question: `CC(C)=NNC(=O)c1cc(NC(=O)[C@H]2[C@H](c3cc(Cl)cc(Cl)c3)C2(Cl)Cl)ccc1Cl` (relative stereo) [F3010, trans-2,2-Dichloro-N-(4-chloro-3-(2-(propan-2-ylidene)hydrazine-1-carbonyl)phenyl)-3-(3,5-dichlorophenyl)cyclopropane-1-carboxamide] was tested. Which YFM rating ([1]; Yellow Fever Mosquito) did it give?
Answer: A (80–100)

Question: And the “YFM % Control (or Mortality) rating” value ([1]; about 1 day-old larvae, 4000 ppm master solution diluted with 90:10 water/acetone, 15 μL per well plus 220 μL larval mixture, 3 days, mortality)?
Answer: A (80–100)

Question: And the mortality at 50 µg/cm2 ([2]; 168 h, second instar larvae, 50 μg/cm^2 of test molecule on artificial diet, 25° C., five to seven days, average of eight wells, read-out: BAW % Control (or Mortality) rating)?
Answer: 50 to 100%

Question: What about the pest or weed control at 50 µg/cm2 [2, 4] of the same compound?
Answer: 50 to 100%

Question: And the mortality at 50 µg/cm2 ([3]; 168 h, second instar larvae, 50 μg/cm^2 of test molecule on artificial diet, 25° C., five to seven days, average of eight wells, read-out: CL % Control (or Mortality) rating)?
Answer: 50 to 100%

Question: And the pest or weed control at 50 µg/cm2 [3, 5]?
Answer: 50 to 100%

Question: Which results are given for `CC(OC(F)(F)F)C(=O)Nc1c(F)ccc(NC(=O)c2cc(NC(=O)[C@H]3[C@H](c4ccc(F)c(C(F)(F)F)c4)C3(Cl)Cl)ccc2Cl)c1F` (stereo partly drawn) [F1771, 2-Chloro-5-((1R,3R)-2,2-dichloro-3-(4-fluoro-3-(trifluoromethyl)phenyl)cyclopropane-1-carboxamido)-N-(2,4-difluoro-3-(2-(trifluoromethoxy)propanamido)phenyl)benzamide]?
Answer: YFM rating ([1]; Yellow Fever Mosquito): A (80–100); pest or weed control at 50 µg/cm2 [2, 4]: 50 to 100%; pest or weed control at 50 µg/cm2 [3, 5]: 50 to 100%

Question: Which results are given for `O=C(NNc1cc(F)ccc1F)c1cc(NC(=O)[C@H]2[C@H](c3cc(Cl)cc(Cl)c3)C2(Cl)Cl)ccc1Cl` (relative stereo) [F2558, trans-2,2-Dichloro-N-(4-chloro-3-(2-(2,5-difluorophenyl)hydrazine-1-carbonyl)phenyl)-3-(3,5-dichlorophenyl)cyclopropane-1-carboxamide]?
Answer: YFM rating ([1]; Yellow Fever Mosquito): A (80–100); pest or weed control at 50 µg/cm2 [2, 4]: 50 to 100%; pest or weed control at 50 µg/cm2 [3, 5]: 50 to 100%

Question: For `O=C(Nc1ccc(F)c(NC(=O)C(F)(F)F)c1)c1cc(NC(=O)[C@H]2[C@H](c3cc(Cl)cc(Cl)c3)C2(Cl)Cl)ccc1Cl` [F1813, 2-Chloro-5-((1R,3R)-2,2-dichloro-3-(3,5-dichlorophenyl)cyclopropane-1-carboxamido)-N-(4-fluoro-3-(2,2,2-trifluoroacetamido)phenyl)benzamide], which YFM rating ([1]; Yellow Fever Mosquito) is on record?
Answer: A (80–100)

Question: And the pest or weed control at 50 µg/cm2 [2, 4]?
Answer: 50 to 100%

Question: And the pest or weed control at 50 µg/cm2 [3, 5]?
Answer: 50 to 100%

Question: Which YFM [1, 6] does the source give for `COc1c(F)cc(NC(=O)[C@H]2[C@H](c3ccc(F)c(Cl)c3)C2(Cl)Cl)cc1C(=O)Nc1ccc(NC(C)=O)cc1` (relative stereo) [F1220, trans-N-(4-Acetamidophenyl)-5-(2,2-dichloro-3-(3-chloro-4-fluorophenyl)-cyclopropane-1-carboxamido)-3-fluoro-2-methoxybenzamide] here?
Answer: A (80–100)

Question: And the pest or weed control at 50 µg/cm2 [2, 7]?
Answer: 50 to 100%

Question: And the pest or weed control at 50 µg/cm2 [3, 8]?
Answer: 50 to 100%

Question: `O=C(NCCC(F)(F)F)c1c(Cl)ccc(NC(=O)[C@H]2[C@H](c3ccc(F)c(Cl)c3)C2(Cl)Cl)c1Cl` (relative stereo) [F2024, trans-2,6-Dichloro-3-(2,2-dichloro-3-(3-chloro-4-fluorophenyl)cyclopropane-1-carboxamido)-N-(3,3,3-trifluoropropyl)benzamide] was tested. Which YFM rating ([1]; Yellow Fever Mosquito) did it give?
Answer: A (80–100)

Question: And the pest or weed control at 50 µg/cm2 [2, 4]?
Answer: 50 to 100%

Question: What about the pest or weed control at 50 µg/cm2 [3, 5] of the same compound?
Answer: 50 to 100%

Question: For `Cc1cc(NC(=O)[C@H]2[C@H](c3ccc(F)c(Cl)c3)C2(Cl)Cl)cc(C(=O)Nc2ccc(F)cc2)c1F` (relative stereo) [F1136, trans-5-(2,2-Dichloro-3-(3-chloro-4-fluorophenyl)cyclopropane-1-carboxamido)-2-fluoro-N-(4-fluorophenyl)-3-methylbenzamide], which YFM [1, 6] is on record?
Answer: A (80–100)

Question: And the pest or weed control at 50 µg/cm2 [2, 7]?
Answer: 50 to 100%

Question: And the pest or weed control at 50 µg/cm2 [3, 8]?
Answer: 50 to 100%

Question: What does the source list for `C#CCN(C(=O)c1cc(NC(=O)[C@H]2[C@H](c3ccc(F)c(C(F)(F)F)c3)C2(Cl)Cl)ccc1Cl)c1ccc(F)c(N)c1F` (relative stereo) [F1114, trans-N-(3-Amino-2,4-difluorophenyl)-2-chloro-5-(2,2-dichloro-3-(4-fluoro-3-(trifluoromethyl)phenyl)cyclopropane-1-carboxamido)-N-(prop-2-yn-1-yl)benzamide]?
Answer: YFM [1, 6]: A (80–100); pest or weed control at 50 µg/cm2 [2, 7]: 50 to 100%; pest or weed control at 50 µg/cm2 [3, 8]: 50 to 100%

Question: `O=C(/C=C/C(F)(F)F)Nc1c(F)ccc(NC(=O)c2cc(NC(=O)[C@H]3[C@H](c4ccc(F)c(C(F)(F)F)c4)C3(Cl)Cl)ccc2Cl)c1F` [F1869, 2-Chloro-5-((1R,3R)-2,2-dichloro-3-(4-fluoro-3-(trifluoromethyl)phenyl)cyclopropane-1-carboxamido)-N-(2,4-difluoro-3-((E)-4,4,4-trifluorobut-2-enamido)phenyl)benzamide] was tested. Which YFM rating ([1]; Yellow Fever Mosquito) did it give?
Answer: A (80–100)

Question: And the pest or weed control at 50 µg/cm2 [2, 4]?
Answer: 50 to 100%

Question: And the pest or weed control at 50 µg/cm2 [3, 5]?
Answer: 50 to 100%

Question: Which results are given for `CC(=O)Nc1c(F)ccc(N(C)C(=O)c2cc(NC(=O)[C@H]3[C@H](c4ccc(F)c(C(F)(F)F)c4)C3(Cl)Cl)ccc2Cl)c1F` [F1799, N-(3-Acetamido-2,4-difluorophenyl)-2-chloro-5-((1R,3R)-2,2-dichloro-3-(4-fluoro-3-(trifluoromethyl)phenyl)cyclopropane-1-carboxamido)-N-methylbenzamide]?
Answer: YFM rating ([1]; Yellow Fever Mosquito): A (80–100); pest or weed control at 50 µg/cm2 [2, 4]: 50 to 100%; pest or weed control at 50 µg/cm2 [3, 5]: 50 to 100%

Question: What does the source list for `O=C(Nc1ccc(F)c(NC(=O)C2CCCO2)c1F)c1cc(NC(=O)[C@H]2[C@H](c3cc(C(F)(F)F)cc(C(F)(F)F)c3)C2(Cl)Cl)ccc1Cl` (relative stereo) [F1805, trans-N-(3-(5-(3-(3,5-bis(Trifluoromethyl)phenyl)-2,2-dichlorocyclopropane-1-carboxamido)-2-chlorobenzamido)-2,6-difluorophenyl)tetrahydrofuran-2-carboxamide]?
Answer: YFM rating ([1]; Yellow Fever Mosquito): A (80–100); pest or weed control at 50 µg/cm2 [2, 4]: 50 to 100%; pest or weed control at 50 µg/cm2 [3, 5]: 50 to 100%

Question: How did the YFM [1, 9] turn out when `O=C(Nc1ccc(F)c(NC(=O)C(F)F)c1F)c1cc(NC(=O)[C@H]2[C@H](c3cccc(F)c3)C2(Cl)Cl)ccc1Cl` (relative stereo) [F1602, trans-2-Chloro-5-(2,2-dichloro-3-(3-fluorophenyl)cyclopropane-1-carboxamido)-N-(3-(2,2-difluoroacetamido)-2,4-difluorophenyl)benzamide] was run?
Answer: A (80–100)

Question: And the pest or weed control at 50 µg/cm2 [2, 10]?
Answer: 50 to 100%

Question: And the pest or weed control at 50 µg/cm2 [3, 11]?
Answer: 50 to 100%

Question: For `CC(=O)Nc1c(F)cc(F)c(NC(=O)c2cc(NC(=O)[C@H]3[C@H](c4cc(Cl)cc(Cl)c4)C3(Cl)Cl)ccc2Cl)c1F` [F1628, N-(3-Acetamido-2,4,6-trifluorophenyl)-2-chloro-5-((1R,3R)-2,2-dichloro-3-(3,5-dichlorophenyl)cyclopropane-1-carboxamido)benzamide], which YFM [1, 9] is on record?
Answer: A (80–100)

Question: What about the pest or weed control at 50 µg/cm2 [2, 10] of the same compound?
Answer: 50 to 100%

Question: What about the pest or weed control at 50 µg/cm2 [3, 11] of the same compound?
Answer: 50 to 100%

Question: Which results are given for `CN(C(=O)c1cc(NC(=O)[C@H]2[C@H](c3cc(Cl)cc(Cl)c3)C2(Cl)Cl)ccc1C#N)c1ccc(F)cc1F` (relative stereo) [F1039, trans-2-Cyano-5-(2,2-dichloro-3-(3,5-dichlorophenyl)cyclopropane-1-carboxamido)-N-(2,4-difluorophenyl)-N-methylbenzamide]?
Answer: YFM [1, 6]: A (80–100); pest or weed control at 50 µg/cm2 [2, 7]: 50 to 100%; pest or weed control at 50 µg/cm2 [3, 8]: 50 to 100%

Question: Which results are given for `C=Cc1ccc(NC(=O)c2cc(NC(=O)[C@H]3[C@H](c4cc(Cl)cc(Cl)c4)C3(Cl)Cl)ccc2Cl)c(F)c1` (relative stereo) [F1313, trans-2-Chloro-5-(2,2-dichloro-3-(3,5-dichlorophenyl)cyclopropane-1-carboxamido)-N-(2-fluoro-4-vinylphenyl)benzamide]?
Answer: YFM [1, 6]: A (80–100); pest or weed control at 50 µg/cm2 [2, 7]: 50 to 100%; pest or weed control at 50 µg/cm2 [3, 8]: 50 to 100%

Question: `CCCC(OCC)C(=O)Nc1c(F)ccc(NC(=O)c2cc(NC(=O)[C@H]3[C@H](c4ccc(F)c(C(F)(F)F)c4)C3(Cl)Cl)ccc2Cl)c1F` (stereo partly drawn) [F1759, 2-Chloro-5-((1R,3R)-2,2-dichloro-3-(4-fluoro-3-(trifluoromethyl)phenyl)cyclopropane-1-carboxamido)-N-(3-(2-ethoxypentanamido)-2,4-difluorophenyl)benzamide] was tested. Which YFM [1, 9] did it give?
Answer: A (80–100)

Question: And the pest or weed control at 50 µg/cm2 [2, 10]?
Answer: 50 to 100%

Question: What about the pest or weed control at 50 µg/cm2 [3, 11] of the same compound?
Answer: 50 to 100%
